# Laboratory results reported in US20070010465A1 (priority 2005, published 2007).
# Columns and labels:
# [1] = test system: acute myelogenous leukemia; settings: valspodar arm, enrollment halted; cited from earlier work
# [2] = target: T1, P-gp (Homo sapiens, UniProt P08183); assay: cellular P-gp function, DiOC2 accumulation assay with flow cytometry on circulating NK cells and leukemic blasts; format: in vivo, Patients with AML
# T1 construct: Pharmacodynamic assessments of cellular P-gp function were conducted using an accumulation assay with DiOC2 and flow cytometry; endogenous in cells; host or cells: circulating NK cells and leukemic blasts from AML patients
# T1 sequence (P08183 whole entry): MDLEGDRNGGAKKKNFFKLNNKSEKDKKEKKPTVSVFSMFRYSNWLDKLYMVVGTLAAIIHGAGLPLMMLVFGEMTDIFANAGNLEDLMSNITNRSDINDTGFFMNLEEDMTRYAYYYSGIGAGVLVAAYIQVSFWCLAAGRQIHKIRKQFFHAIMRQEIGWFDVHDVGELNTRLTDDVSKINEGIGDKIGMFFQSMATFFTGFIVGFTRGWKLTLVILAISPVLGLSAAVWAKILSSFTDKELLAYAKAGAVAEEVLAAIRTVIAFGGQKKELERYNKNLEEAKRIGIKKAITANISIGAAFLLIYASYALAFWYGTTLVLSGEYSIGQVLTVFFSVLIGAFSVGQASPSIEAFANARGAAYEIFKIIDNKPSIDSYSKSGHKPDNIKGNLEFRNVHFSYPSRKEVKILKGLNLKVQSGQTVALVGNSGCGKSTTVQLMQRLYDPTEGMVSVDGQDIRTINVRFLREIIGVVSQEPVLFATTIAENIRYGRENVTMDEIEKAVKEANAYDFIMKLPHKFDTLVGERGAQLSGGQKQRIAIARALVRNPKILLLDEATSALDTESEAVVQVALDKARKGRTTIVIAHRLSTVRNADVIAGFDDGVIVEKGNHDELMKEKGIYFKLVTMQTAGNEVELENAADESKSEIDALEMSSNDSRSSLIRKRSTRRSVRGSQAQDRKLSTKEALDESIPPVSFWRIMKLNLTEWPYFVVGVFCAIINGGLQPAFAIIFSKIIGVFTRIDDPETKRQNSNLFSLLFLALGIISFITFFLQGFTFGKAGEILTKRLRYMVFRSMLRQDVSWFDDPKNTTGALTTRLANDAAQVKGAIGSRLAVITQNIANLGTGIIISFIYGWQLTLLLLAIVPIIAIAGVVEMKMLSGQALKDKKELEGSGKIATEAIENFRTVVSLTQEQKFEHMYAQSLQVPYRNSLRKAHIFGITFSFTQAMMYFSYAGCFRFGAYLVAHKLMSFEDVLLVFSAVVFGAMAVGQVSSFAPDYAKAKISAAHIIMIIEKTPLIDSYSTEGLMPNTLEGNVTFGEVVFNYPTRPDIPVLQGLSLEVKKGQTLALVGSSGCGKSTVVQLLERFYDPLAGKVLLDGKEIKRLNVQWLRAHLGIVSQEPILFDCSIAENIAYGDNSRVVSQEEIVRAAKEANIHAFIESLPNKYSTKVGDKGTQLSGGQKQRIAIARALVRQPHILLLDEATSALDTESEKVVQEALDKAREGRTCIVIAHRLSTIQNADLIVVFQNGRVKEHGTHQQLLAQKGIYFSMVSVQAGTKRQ
# Protocol: Cytarabine was also administered (100 mg/m^2/day) starting after the first dose of daunorubicin as a continuous intravenous infusion on days 1-7. Blood samples were taken at intervals for pharmacokinetic and pharmacodynamic studies. Pharmacokinetic drug determinations were conducted by HPLC. Pharmacodynamic assessments of cellular P-gp function were conducted using an accumulation assay with DiOC2 and flow cytometry. P-gp function was assessed on circulating natural killer (NK) cells and leukemic blasts. […] Means of 3 patients for each time point are shown.
# [3] = several oncolytics, preclinical models; cited from earlier work
Structure (SMILES),early mortality [1],time to potent inhibition of P-gp function after start of zosuquidar infusion ([2]; 700 mg/day continuous intravenous infusion) [h],duration of inhibition of P-gp functional activity after zosuquidar infusion was halted ([2]; after 72 hour infusion),pharmacokinetic (PK) interactions with oncolytics [3]
C/C=C/C[C@@H](C)C(=O)[C@H]1C(=O)N[C@@H](C(C)C)C(=O)N(C)CC(=O)N(C)[C@@H](CC(C)C)C(=O)N[C@@H](C(C)C)C(=O)N(C)[C@@H](CC(C)C)C(=O)N[C@@H](C)C(=O)N[C@H](C)C(=O)N(C)[C@@H](CC(C)C)C(=O)N(C)[C@@H](CC(C)C)C(=O)N(C)[C@@H](C(C)C)C(=O)N1C [valspodar],excessive early mortality,,,
O[C@@H](COc1cccc2ncccc12)CN1CCN([C@@H]2c3ccccc3[C@@H]3[C@H](c4ccccc42)C3(F)F)CC1 [Zosuquidar],,≤ 2,at least 12 hours,minimal
